Values quoted from earlier work, collected in patent EP1482795B1, “NEW IMMU[…]” (CORIXA CORPORATION, priority 2002, dated 2003).

Monophosphoryl lipid A [MPL® immunostimulant]
doses that can be safely administered to humans: at least 20 µg/kg | dose levels at which increases in temperature, flu-like symptoms, increasing heart rate and modest decreases in blood pressure can occur (humans, some patients): ≥ 0.01 mg/kg
